According to the supplement of paper PMC11208160:

test: recombinant UMI read abundance after kanamycin selection (control-corrected) (log10(CPM+1)); higher = more efficient recombination; extreme values may be limits of the assay; sequences stand for … in AGTGCAGAGAAAATCGGCCAGTTTTCTCTGCCTGCAGTCCGCATGCCGTGGGACCCCTTGGGTTCTAACCTGTTGCCTAGATTTATGCAGCGGACTGCCTTTCTCCCAAAGTGATAAACCGG…AGGTTGGTTTCACT; site = the 11-nt donor
In short: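 In Escherichia coli, a pool of donor and donor-binding-loop pairs, each with a 12-nt UMI, was tested for the IS621 bridge recombinase. Plating was on IPTG (0.07 mM) plus kanamycin, or without selection, in two replicates. Recombinant UMIs were amplified by PCR across the donor–target junction and sequenced, and counts were reported as log10(CPM+1) after averaging and control-derived scaling.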
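Further: IS621 bridge recombinase in Escherichia coli cells against a fixed T5 target plasmid.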

Row | Sequence | recombinant UMI read abundance (log10)
1 | CGAGAGTCATGGACCGGTTTTCCCGGTAATCCGTATTTGCC (site CGCGAGTCTGG) | 0
2 | CGAGAGTCATGGACCGGTTTTCCCGGTAATCCGTATTTGCC (site CGGGAGTCTGG) | 1.46
3 | CGAGAGTCATGGACCGGTTTTCCCGGTAATCCGTATTTGCC (site CGTGAGTCTGG) | 2.4
4 | CGAGCGACATGGACCGGTTTTCCCGGTAATCCGTATTTGTA (site CGAGCGACTTA) | 2.3
5 | CGAGGACCATGGACCGGTTTTCCCGGTAATCCGTATTTGAA (site CGAGGACCTTT) | 0.0106
6 | CGAGGACCATGGACCGGTTTTCCCGGTAATCCGTATTTGGC (site CGAGGACCTAC) | 0.0204
7 | CGAGGACCATGGACCGGTTTTCCCGGTAATCCGTATTTGGC (site CGAGGACCTCC) | 0.0246
8 | CGAGGACCATGGACCGGTTTTCCCGGTAATCCGTATTTGGC (site CGAGGACCTGC) | 0
9 | CGAGGACCATGGACCGGTTTTCCCGGTAATCCGTATTTGGC (site CGAGGACCTTC) | 0.013
10 | CGAGGCCCATGGACCGGTTTTCCCGGTAATCCGTATTTGGG (site CGAGGACCTCC) | 0.0197
11 | CGAGGCCCATGGACCGGTTTTCCCGGTAATCCGTATTTGGG (site CGAGGCCCTCC) | 0.0196
12 | CGAGGCCCATGGACCGGTTTTCCCGGTAATCCGTATTTGGG (site CGAGGGCCTCC) | 0.016
13 | CGAGGCCCATGGACCGGTTTTCCCGGTAATCCGTATTTGGG (site CGAGGTCCTCC) | 0.00542
14 | CGAGTATCATGGACCGGTTTTCCCGGTAATCCGTATTTGCA (site ACAGTATCTTG) | 2.08
15 | CGAGTATCATGGACCGGTTTTCCCGGTAATCCGTATTTGCA (site CGAGTATCTTG) | 3
16 | CGAGTCCCATGGACCGGTTTTCCCGGTAATCCGTATTTGTG (site GTCAGTTCTAG) | 0
17 | CGATAAACATGGACCGGTTTTCCCGGTAATCCGTATTTGCT (site CGATAAACTAG) | 2.83
18 | CGATAAACATGGACCGGTTTTCCCGGTAATCCGTATTTGCT (site CGATCATCTAG) | 0
19 | CGATACACATGGACCGGTTTTCCCGGTAATCCGTATTTGCT (site CGATACACTAG) | 2.54

Row | Sequence | recombinant UMI read abundance (log10)
20 | CGATAGTCATGGACCGGTTTTCCCGGTAATCCGTATTTGCC (site CGATAGTCTGG) | 2.66
21 | CGATCAACATGGACCGGTTTTCCCGGTAATCCGTATTTGCG (site CGATCAACTCG) | 0.894
22 | CGATCAACATGGACCGGTTTTCCCGGTAATCCGTATTTGCG (site CGATCATCTAG) | 0
23 | CGATCAGCATGGACCGGTTTTCCCGGTAATCCGTATTTGTT (site CGATCAGCTAA) | 1.59
24 | CGATCAGCATGGACCGGTTTTCCCGGTAATCCGTATTTGTT (site CGATCATCTAG) | 0
25 | CGATCCTCATGGACCGGTTTTCCCGGTAATCCGTATTTGCG (site CGATCATCTAG) | 0
26 | CGATCCTCATGGACCGGTTTTCCCGGTAATCCGTATTTGCG (site CGATCCTCTCG) | 2.64
27 | CGATCCTCATGGACCGGTTTTCCCGGTAATCCGTATTTGCT (site CGATCATCTAG) | 0
28 | CGATCCTCATGGACCGGTTTTCCCGGTAATCCGTATTTGCT (site CGATCCTCTAG) | 2.82
29 | CGATCCTCATGGACCGGTTTTCCCGGTAATCCGTATTTGCT (site CGATCGTCTAG) | 0
30 | CGATCCTCATGGACCGGTTTTCCCGGTAATCCGTATTTGCT (site CGATCTTCTAG) | 0
31 | CGATCGACATGGACCGGTTTTCCCGGTAATCCGTATTTGAT (site CGATCGACTAA) | 0.0179
32 | CGATCGACATGGACCGGTTTTCCCGGTAATCCGTATTTGAT (site CGATCGACTAC) | 0
33 | CGATCGACATGGACCGGTTTTCCCGGTAATCCGTATTTGAT (site CGATCGACTAG) | 0
34 | CGATCGACATGGACCGGTTTTCCCGGTAATCCGTATTTGAT (site CGATCGACTAT) | 0.807
35 | CGATCGCCATGGACCGGTTTTCCCGGTAATCCGTATTTGTT (site CGATCGACTAA) | 0.0236
36 | CGATCGCCATGGACCGGTTTTCCCGGTAATCCGTATTTGTT (site CGATCGCCTAA) | 0.142
37 | CGATCGCCATGGACCGGTTTTCCCGGTAATCCGTATTTGTT (site CGATCGGCTAA) | 0
